Data set [1] has as its system Carrageenin edema in rat's paw. Description: Carrageenin Edema Test in Rat's Paw (anti-inflammatory activity, Table 1). The class given is in vivo. Conditions: 100 mg/kg oral, hydrochloride, rat. As for the experimental part: An anti-inflammatory activity was measured by orally administering 100 mg/kg of a hydrochloride of the indazole derivative of this invention as set forth in Table 1 to an animal in accordance with the standard method of Carrageenin Edema Test in Rat's Paw described in C. A. Winter et al., Proc. Soc. Exp. Biol. Med., 111, 544 (1962).

Data set [2] in a line: in vivo. Conditions: mouse, ip, intraperitoneal, hydrochloride, male ddy mice.

Usually inhibition in vivo stands for the drop in the measured response relative to a control, in per cent. One may read the LD50 as the dose expected to kill half of the subjects tested. Turning to `CC1CCCC(C)N1CCCNc1nn(CCCN2CCOCC2)c2ccc(Cl)cc12` (centres unmarked) [(116), 1-(3-Morpholinopropyl)-3-[3-(2,6-dimethylpiperidino)propylamino]-5-chloroindazole], the inhibition in vivo at 100 mg/kg in data set [1] amounted to 33%. For the same compound, the LD50 in data set [2] came to 311 mg/kg.
In data set [1], `Clc1ccc2c(c1)c(NCCCN1CCC(Cl)CC1)nn2CCCN1CCOCC1` [(117), 1-(3-Morpholinopropyl)-3-[3-(4-chloropiperidino)propylamino]-5-chloroindazole] yielded an inhibition in vivo at 100 mg/kg of 30%. In data set [2], the LD50 came out at 291 mg/kg.
For the compound `OC1CCN(CCCNc2nn(CCCN3CCOCC3)c3ccc(Cl)cc23)CC1` [(118), 1-(3-Morpholinopropyl)-3-[3-(4-hydroxypiperidino)propylamino]-5-chloroindazole], at 100 mg/kg the inhibition in vivo in data set [1] was 31%. In data set [2], this compound had a 50% lethal dose (LD50) of 287 mg/kg.
As to `CCN(CC)CCCNc1nn(CCCN(CC)CC)c2cccc(O)c12` [(119), 1-(3-Diethylaminopropyl)-3-(3-diethylaminopropylamino)-4-hydroxyindazole], in data set [1], the inhibition in vivo at 100 mg/kg was determined as 29%. In addition, the LD50 in data set [2] stood at 271 mg/kg.
In data set [1], `CCN(CC)CCCNc1nn(CCCN(CC)CC)c2ccc(O)cc12` [(120), 1-(3-Diethylaminopropyl)-3-(3-diethylaminopropylamino)-5-hydroxyindazole] displayed an inhibition in vivo at 100 mg/kg of 28%. The 50% lethal dose (LD50) in data set [2] is 269 mg/kg.
In data set [1], `CCN(CC)CCCNc1nn(CCCN(CC)CC)c2cc(O)ccc12` [(121), 1-(3-Diethylaminopropyl)-3-(3-diethylaminopropylamino)-6-hydroxyindazole] had an inhibition in vivo at 100 mg/kg of 21%. The compound further registered a median lethal dose (LD50) in data set [2] of 251 mg/kg.
The like results for `CCN(CC)CCCNc1nn(CCCN(CC)CC)c2c(O)cccc12` [(122), 1-(3-Diethylaminopropyl)-3-(3-diethylaminopropylamino)-7-hydroxyindazole] were, in that order, 31% and 245 mg/kg.
In data set [1], `CCN(CC)CCCNc1nn(CCCN(CC)CC)c2ccc(I)cc12` [(123), 1-(3-Diethylaminopropyl)-3-(3-diethylaminopropylamino)-5-iodoindazole] returned an inhibition in vivo at 100 mg/kg of 27%. In data set [2], this compound gave a 50% lethal dose (LD50) of 291 mg/kg.
`CCN(CC)CCCNc1nn(CCCN(CC)CC)c2c(I)cccc12` [(124), 1-(3-Diethylaminopropyl)-3-(3-diethylaminopropylamino)-7-iodoindazole] gave an inhibition in vivo at 100 mg/kg in data set [1] of 29%. The compound also gave an LD50 in data set [2] of 313 mg/kg.
In turn, `CCN(CC)CCCNc1nn(CCCN(CC)CC)c2c(N)cc(N)cc12` [(125), 1-(3-Diethylaminopropyl)-3-(3-diethylaminopropylamino)-5,7-diaminoindazole] showed an inhibition in vivo at 100 mg/kg in data set [1] of 28%. Moreover, the LD50 in data set [2] stood at 320 mg/kg.
`CCN(CC)CCCn1nc(NCCCCCCN2CCCCC2)c2cc(O)ccc21` [(127), 1-(3-Diethylaminopropyl)-3-(6-piperidinohexylamino)-5-hydroxyindazole]: in data set [1], the inhibition in vivo at 100 mg/kg was determined as 21%. The 50% lethal dose (LD50) in data set [2] stood at 198 mg/kg.
`CCCCN(CCCC)CCCNc1nn(CCCN(CC)CC)c2ccc(O)cc12` [(128), 1-(3-Diethylaminopropyl)-3-(3-di-n-butylaminopropylamino)-5-hydroxyindazole] gave an inhibition in vivo at 100 mg/kg in data set [1] of 31%. The compound also yielded an LD50 in data set [2] of 170 mg/kg.
Turning to `CCN(CC)CCCn1nc(NCCC(C)N2CCCCC2)c2cc(O)ccc21` (centres unmarked) [(129), 1-(3-Diethylaminopropyl)-3-(3-piperidinobutylamino)-5-hydroxyindazole], the inhibition in vivo at 100 mg/kg in data set [1] is 27%. The LD50 in data set [2] was 240 mg/kg.
As to `CCN(CC)CCCNc1nn(CCCN2CCCCC2)c2ccc(O)cc12` [(130), 1-(3-Piperidinopropyl)-3-(3-diethylaminopropylamino)-5-hydroxyindazole], the inhibition in vivo at 100 mg/kg in data set [1] was 29%. In data set [2], this compound came in with an LD50 of 211 mg/kg.
With `Oc1ccc2c(c1)c(NCCCN1CCCCC1)nn2CCCN1CCCCC1` [(131), 1-(3-Piperidinopropyl)-3-(3-piperidinopropylamino)-5-hydroxyindazole], the inhibition in vivo at 100 mg/kg in data set [1] was 28%. Further, the LD50 in data set [2] came out at 298 mg/kg.
For the compound `Oc1ccc2c(c1)c(NCCCCCCN1CCCCC1)nn2CCCN1CCCCC1` [(132), 1-(3-Piperidinopropyl)-3-(6-piperidinohexylamino)-5-hydroxyindazole], the inhibition in vivo at 100 mg/kg in data set [1] was determined as 21%. In addition, in data set [2], the LD50 is 310 mg/kg.
For the compound `CC(CCNc1nn(CCCN2CCCCC2)c2ccc(O)cc12)N1CCCCC1` (centres unmarked) [(133), 1-(3-Piperidinopropyl)-3-(3-piperidinobutylamino)-5-hydroxyindazole], the inhibition in vivo at 100 mg/kg in data set [1] was found to be 28%. Besides, in data set [2], the 50% lethal dose (LD50) stood at 330 mg/kg.
In the case of `CCN(CC)CCCNc1nn(CCC(C)N2CCCCC2)c2ccc(O)cc12` (centres unmarked) [(134), 1-(3-Piperidinobutyl)-3-(3-diethylaminopropylamino)-5-hydroxyindazole], the inhibition in vivo at 100 mg/kg in data set [1] came to 29%. Further, in data set [2], the LD50 was found to be 349 mg/kg.
In turn, `CC(CCn1nc(NCCCN2CCCCC2)c2cc(O)ccc21)N1CCCCC1` (centres unmarked) [(135), 1-(3-Piperidinobutyl)-3-(3-piperidinopropylamino)-5-hydroxyindazole] came in with an inhibition in vivo at 100 mg/kg in data set [1] of 28%. The compound also returned an LD50 in data set [2] of 298 mg/kg.
The compound `CC(C)CC(CCNc1nn(CCC(C)N2CCCCC2)c2ccc(O)cc12)N1CCCCC1` (centres unmarked) [(136), 1-(3-Piperidinobutyl)-3-(3-piperidino-5-methylhexylamino)-5-hydroxyindazole] yielded an inhibition in vivo at 100 mg/kg in data set [1] of 21%. The compound further gave an LD50 in data set [2] of 241 mg/kg.
Compound `CC(CCNc1nn(CCC(C)N2CCCCC2)c2ccc(O)cc12)N(C)C` (centres unmarked) [(137), 1-(3-Piperidinobutyl)-3-(3-dimethylaminobutylamino)-5-hydroxyindazole] displayed an inhibition in vivo at 100 mg/kg in data set [1] of 21%. The compound also came in with an LD50 in data set [2] of 258 mg/kg.
The like results for `CCN(CC)CCCNc1nn(CCC(C)N(C)C)c2ccc(O)cc12` (centres unmarked) [(138), 1-(3-Dimethylaminobutyl)-3-(3-diethylaminopropylamino)-5-hydroxyindazole] were, in that order, 29% and 213 mg/kg.
The like results for `CC(CCn1nc(NCCCN2CCCCC2)c2cc(O)ccc21)N(C)C` (centres unmarked) [(139), 1-(3-Dimethylaminobutyl)-3-(3-piperidinopropylamino)-5-hydroxyindazole] were, in that order, 28% and 249 mg/kg.
For the compound `CC(CCn1nc(NCCC(C)N2CCCCC2)c2cc(O)ccc21)N(C)C` (centres unmarked) [(140), 1-(3-Dimethylaminobutyl)-3-(3-piperidinobutylamino)-5-hydroxyindazole], the inhibition in vivo at 100 mg/kg in data set [1] came to 27%. Further, the 50% lethal dose (LD50) in data set [2] worked out at 313 mg/kg.
The compound `CCN(CC)C(CCNc1nn(CCC(C)N(C)C)c2ccc(O)cc12)CC(C)C` (centres unmarked) [(141), 1-(3-Dimethylaminobutyl)-3-(3-diethylamino-5-methylhexylamino)-5-hydroxyindazole] gave an inhibition in vivo at 100 mg/kg in data set [1] of 21%. In data set [2], the LD50 amounted to 340 mg/kg.
Take `Oc1ccc2c(c1)c(NCCCN1CCCCCC1)nn2CCCN1CCCC1` [(142), 1-(3-Pyrrolidinopropyl)-3-(3-homopiperidinopropylamino)-5-hydroxyindazole]: the inhibition in vivo at 100 mg/kg in data set [1] turned out to be 28%. For the same compound, in data set [2], the 50% lethal dose (LD50) was 349 mg/kg.
Take `CC1CCCCN1CCCNc1nn(CCCN2CCCC2)c2ccc(O)cc12` (centres unmarked) [(143), 1-(3-Pyrrolidinopropyl)-3-[3-(2-methylpiperidino)propylamino]-5-hydroxyindazole]: 100 mg/kg produced 30% inhibition in vivo in data set [1]. Moreover, the 50% lethal dose (LD50) in data set [2] was 291 mg/kg.
For `CN1CCN(CCCNc2nn(CCCN3CCCC3)c3ccc(O)cc23)CC1` [(144), 1-(3-Pyrrolidinopropyl)-3-[3-(4-methylpiperazino)propylamino]-5-hydroxyindazole] the same measures were 26% and 281 mg/kg.
With `CCN(CC)CCCNc1nn(CCCN2CCOCC2)c2ccc(O)cc12` [(145), 1-(3-Morpholinopropyl)-3-(3-diethylaminopropylamino)-5-hydroxyindazole], the inhibition in vivo at 100 mg/kg in data set [1] came to 30%. Further, the 50% lethal dose (LD50) in data set [2] worked out at 211 mg/kg.
The compound `CC1CCCC(C)N1CCCNc1nn(CCCN2CCOCC2)c2ccc(O)cc12` (centres unmarked) [(146), 1-(3-Morpholinopropyl)-3-[3-(2,6-dimethylpiperidino)propylamino]-5-hydroxyindazole] displayed an inhibition in vivo at 100 mg/kg in data set [1] of 32%. Also, the LD50 in data set [2] was determined as 198 mg/kg.
For `Oc1ccc2c(c1)c(NCCCN1CCC(Cl)CC1)nn2CCCN1CCOCC1` [(147), 1-(3-Morpholinopropyl)-3-[3-(4-chloropiperidino)propylamino]-5-hydroxyindazole] the same measures were 29% and 181 mg/kg.
The like results for `Oc1ccc2c(c1)c(NCCCN1CCC(O)CC1)nn2CCCN1CCOCC1` [(148), 1-(3-Morpholinopropyl)-3-[3-(4-hydroxypiperidino)propylamino]-5-hydroxyindazole] were, in that order, 30% and 245 mg/kg.
For `Nc1nn(CCCN2CCOCC2)c2ccccc12` [(149), 1-(3-Morpholinopropyl)-3-aminoindazole], the inhibition in vivo at 100 mg/kg in data set [1] was found to be 50%. Moreover, the 50% lethal dose (LD50) in data set [2] amounted to 261 mg/kg.
With `CC(CCn1nc(N)c2ccccc21)N1CCOCC1` (centres unmarked) [(150), 1-(3-Morpholinobutyl)-3-aminoindazole], 100 mg/kg produced 39% inhibition in vivo in data set [1]. Further, the 50% lethal dose (LD50) in data set [2] turned out to be 270 mg/kg.
Turning to `Nc1nn(CCN2CCOCC2)c2ccccc12` [(151), 1-(2-Morpholinoethyl)-3-aminoindazole], in data set [1], 100 mg/kg produced 48% inhibition in vivo. For the same compound, the 50% lethal dose (LD50) in data set [2] was found to be 290 mg/kg.
Compound `CC(CCNc1n[nH]c2ccccc12)N1CCOCC1` (centres unmarked) [(153), 3-(3-Morpholinobutylamino)indazole] displayed an inhibition in vivo at 100 mg/kg in data set [1] of 51%. For the same compound, the 50% lethal dose (LD50) in data set [2] is 331 mg/kg.
Compound `c1ccc2c(NCCN3CCOCC3)n[nH]c2c1` [(154), 3-(2-Morpholinoethylamino)indazole] displayed an inhibition in vivo at 100 mg/kg in data set [1] of 50%. In data set [2], this compound had a 50% lethal dose (LD50) of 351 mg/kg.

The record behind these values is US4751302A, “Indazole derivatives” (priority 1982, dated 1988).
